Experiments:
male ZSF1 rats = test: Treatment of male ZSF1 rats for 24 weeks with 2-hydroxyestradiol or 2-methoxyestradiol; format: in vivo, rat
Description: Male ZSF1 rats were treated continuously for 24 weeks with polyethylene glycol 400 (PEG 400) (Sigma, St. Louis, Mo.) or one of three doses of 2-hydroxyestradiol or 2-methoxyestradiol (Steraloids, Inc. Newport, R.I.) dissolved in PEG 400. The three doses were 1 ug/kg/hr, 3 ug/kg/hr or 10 ug/kg/hr. Female ZSF1 rats were treated continuously for 24 weeks with either PEG 400 or 10 ug/kg/hr of 2-hydroxyestradiol. Female ZSF1 rats were ovarectomized at 11 weeks of age. For all animals, both male and female, treatments with estradiol metabolites were begun at approximately 13 weeks of age. One group of male ZSF1 rats received only PEG 400 but were pair fed to receive the same daily food intake as the male ZSF1 rats treated with 10 ug/kg/hr 2-hydroxyestradiol. Treatment was administered via subcutaneous implanted pumps (Alzet Osmotic Pump, Model 2ML4, Alza Corporation, Palo Alto, Calif.). The study was designed to evaluate treatment effects and dose responses on body weight, food intake, water intake, urine output, urinary protein excretion, cholesterol levels, plasma glucose levels and glucose tolerance.
Stock solutions of both 2-hydroxyestradiol and 2-methoxyestradiol were made by dissolving the required amount of estradiol metabolite in PEG 400. This solution was diluted in PEG 400 to deliver the three required doses based on the mean weight of each treatment group and the stated volume delivery rate for each lot of osmotic pumps in the study. This stock solution was prepared fresh prior to each osmotic pump implantation in each group. The control solution of PEG 400 was created in the same manner.
All treatments were administered via a subcutaneously implanted osmotic pump (Alzet Osmotic Pump, Model 2ML4, Alza Corporation, Palo Alto, Calif.). Each lot of osmotic pumps were delivered with the stated rate of delivery and formulation concentrations were adjusted to ensure delivery of 1,3, or 10 ug/kg/hr based on the stated rate of delivery of each lot. Doses were adjusted for the mean weight of the animals in the treatment group obtained 24 hours prior to implantation of the osmotic minipump.
Animals were anesthetized prior to implantation of an osmotic minipump with halothane and oxygen (2.5 liter/min) delivered by a Fluotec 3 anesthetic device (Ohmeda, Steeton, UK). After lightly anesthetizing each animal, implantation was accomplished by shaving the back and creating a half-inch incision in which to insert the osmotic minipump. The incision was then closed with wound clips that were removed in seven days. Osmotic minipumps were replaced at 33-day intervals and each time a particular animal received an osmotic minipump, the insertion point was changed.
Metabolic cages (Nalgene, Rochester, N.Y.) were used in this study. Animals were placed in metabolic cages for 48 hours. The first 24-hour period was considered an acclimation period, while food and fluid intake and urine volume were measured during the second 24-hour period. Additionally, a tail vein sample was obtained to measure blood glucose, sodium, potassium, albumin and creatinine. The blood was further analyzed to assess creatinine clearance, fractional sodium excretion, fractional potassium excretion and fractional albumin excretion. In addition, the following criteria were also assessed while the animals were in the metabolic cages: body weight, feed intake, water intake, urine output, urinary protein, urinary albumin, urinary glucose, urinary sodium and urinary potassium.
Body weights were assessed 24 hours before pump implantation and those weights were used to calculate the dosage of drug or vehicle to be given to each animal based on the mean body weight of each group. Animals were weighed approximately once every two months prior to being placed in a metabolic cage.
Food intake was measured by filling the food containers with standard powder laboratory food up to a total weight of 250 grams. […]

male obese ZSF1 rats = test: Heart performance, arterial blood pressure and renal hemodynamics in anesthetized ZSF1 rats after 26 weeks of treatment; format: in vivo, rat; conditions: for Glomerular Filtration Rate / Renal Blood Flow / Renal Vascular Resistance: 26 weeks (approximately 6 months) of treatment; for Glomerular Filtration Rate: 14C-inulin clearance
From the text: After 26 weeks of treatment, animals were anesthetized and instrumented for assessment of heart performance, renal hemodynamics and mesenteric vascular reactivity. A PE-50 catheter was advanced via the carotid artery into the left ventricle and connected to a heart-performance analyzer (Micro-Med, Inc., Louisville, Ky.) for continuous measurement of ten time/pressure variables. A PE-50 catheter was inserted into the femoral artery and connected to a blood pressure analyzer (Micro-Med, Inc.) for measurement of arterial blood pressure. A PE-10 catheter was inserted into the left ureter for urine collection, and a flow probe (Transonic Systems, Inc., Ithaca, N.Y.) was placed on the left renal artery for determination of renal blood flow. An infusion of ^14C-inulin (0.035 uCi/20 ul saline/min) was initiated, and after 60 minutes, two 30-minute clearance periods were conducted. A mid-point blood sample (300 ul) for measurement of radioactivity was collected. Plasma and urine ^14C-inulin radioactivity were measured, and renal clearance of ^14C-inulin was calculated. A flow probe was placed on the mesenteric artery for determination of mesenteric blood flow, and a 32-gauge needle was inserted into the mesenteric artery and attached to a Y-connector for dual intramesenteric artery infusions (25 ul/min each). Angiotensin II (30 ng/min) plus methoxamine (3 ug/min) was delivered via one intramesenteric artery infusion line into the mesenteric vascular bed to the mesenteric vascular bed. Next, vascular responses to increasing doses of acetylcholine (0.3, 1.0 and 3.0 ug/min, 5 minutes per dose) and sodium nitroprusside (0.5, 1.5 and 5.0 ug/min, 5 minutes per dose) were elicited by infusing these agents via the other intramesenteric artery infusion line into the mesenteric vascular bed. Vascular resistances were calculated as arterial blood pressure divided by blood flow.
All values refer to means±SEM for 9 to 10 animals in each group. Statistical significance was calculated using either an unpaired Student's t-test or a 2-factor analysis of variance (repeated measures) followed by a Fisher's Least Significance Difference test if appropriate. The criterion of significance was p<0.05.

[1] = male, 10 ug/kg/hr, 24 weeks, versus control animals
[2] = male, 1, 3 or 10 ug/kg/hr s.c. osmotic pump, 24 weeks, versus control
[3] = anesthetized, listed as 2-Hydroxyestradiol
[4] = Table 2, after approximately 6 months of treatment

SMILES: C[C@]12CC[C@@H]3c4cc(O)c(O)cc4CC[C@H]3[C@@H]1CC[C@@H]2O [2-hydroxyestradiol, estra-1,3,5 (10)-triene-2,3,1 7-triol (17β)]
- Leptin levels (FIG. 11) (male ZSF1 rats; male, 10 ug/kg/hr, 20 weeks, versus control animals): clearly reduced
- 24-hour urine output (FIG. 13) (male ZSF1 rats; [1]): lower
- 24-hour water intake (FIG. 12) (male ZSF1 rats; [1]): lower
- Blood urea nitrogen (FIG. 10) (male ZSF1 rats; male, 10 ug/kg/hr, 24 weeks, versus control groups): lower
- Plasma level of glucose after administration of 2 g/4 ml/kg glucose (oral glucose tolerance test, FIGS. 8 and 9) (male ZSF1 rats; male, 10 ug/kg/hr, treated for 14 to 15 weeks, versus control groups): lower
- Body weight gain (FIGS. 4 and 5) (male ZSF1 rats; [2]): less body weight gain
- Food intake (male ZSF1 rats; [2]): lower food intake
- Urinary protein excretion (FIG. 7) (male ZSF1 rats; male, 1, 3 or 10 ug/kg/hr, after 24 weeks of treatment, versus control animals): lower
- Mean arterial blood pressure (male obese ZSF1 rats; 10 ug/kg/hour s.c., 26 weeks of treatment, anesthetized): 122±5 mm Hg
- Effects on heart performance in situ (male obese ZSF1 rats; 10 ug/kg/hour s.c., chronic treatment (26 weeks), versus control): no effects
- Glomerular Filtration Rate (male obese ZSF1 rats): did not affect
- Glomerular Filtration Rate (male obese ZSF1 rats; listed as 2-Hydroxyestradiol): 0.76 ± 0.09 ml/min/gram kidney
- Renal Blood Flow (male obese ZSF1 rats; anesthetized): did not affect
- Renal Vascular Resistance (male obese ZSF1 rats; anesthetized): did not affect
- Renal Blood Flow (male obese ZSF1 rats; [3]): 3.3 ± 0.6 ml/min/gram kidney
- Renal Vascular Resistance (male obese ZSF1 rats; [3]): 42 ± 7 mm Hg/ml/min/gram kidney
- +dP/dtmax (male obese ZSF1 rats; [4]): 11,805 ± 943 mm Hg/sec
- +dP/dtmax/Ventricular Peak Systolic Pressure (male obese ZSF1 rats; [4]): 69.9 ± 2.5 s⁻¹
- Duration of Contraction (male obese ZSF1 rats; [4]): 38.8 ± 3.5 ms
- Duration of Relaxation (male obese ZSF1 rats; [4]): 96.3 ± 6.3 ms
- Half-Time of Ventricular Relaxation (male obese ZSF1 rats; [4]): 49.1 ± 3.6 ms
- Heart Rate (male obese ZSF1 rats; [4]): 352 ± 9 beats/min
- Heart Rate × Ventricular Peak Systolic Pressure (male obese ZSF1 rats; [4]): 60,949 ± 4,237 [beats/min] × mm Hg
- Mean Blood Pressure (male obese ZSF1 rats; [4]): 122 ± 5 mm Hg
- Time Constant of Ventricular Relaxation (male obese ZSF1 rats; [4]): 16.7 ± 1.9 ms
- Ventricular End Diastolic Pressure (male obese ZSF1 rats; [4]): 4.2 ± 1.0 mm Hg
- Ventricular Minimum Diastolic Pressure (male obese ZSF1 rats; [4]): −1.4 ± 1.1 mm Hg
- Ventricular Peak Systolic Pressure (male obese ZSF1 rats; [4]): 172 ± 9 mm Hg
- −dP/dtmax (male obese ZSF1 rats; [4]): 6853 ± 382 mm Hg/sec
